We go through 31 compounds from US7595401B2, “Therapeutic compounds and their use in cancer” (Myriad Pharmaceuticals, Inc., priority 2006, dated 2009).

Bounds are passed on as bounds.

The first assay relates to purified human Hsp90. Kind of assay: Binding Assay: fluorescence polarization with BODIPY-labeled geldanamycin. Particulars: 5 μM compound, BODIPY-GM 10 nM, Hsp90 30 nM. The method, boiled down: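 Fluorescence polarization competition with BODIPY-geldanamycin (10 nM final) and human Hsp90 (30 nM final) in HEPES-KOH pH 7.3 buffer with molybdate, NP-40, DTT; 2% DMSO, overnight at room temperature. Read 485/530 nm; percent inhibition from mP normalized to DMSO controls, fluorescent-compound points excluded.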
(In general: Fluorescence polarisation rises when a labelled molecule tumbles more slowly, as on binding a larger partner.)
With `Nc1ncn(CCC2CCN(S(=O)(=O)C(F)(F)F)CC2)c2nc(Sc3cc4c(cc3Br)OCO4)nc1-2` [Example 388, 8-[(6-Bromo-1,3-benzodioxol-5-yl)thio]-3-(2-{1-[(trifluoromethyl)sulfonyl]piperidin 4-yl}ethyl)-3H-purin-6-amine], the % Inhibition (usually the change of the read-out against control, counted positive when it falls) at 5 μM Compound Concentration is given as 13%. With `CC(C)(C)OC(=O)N1CCC(=CCn2cnc(N)c3nc(Sc4cc5c(cc4Br)OCO5)nc2-3)CC1` [Example 389, tert-Butyl 4-(2-{6-amino-8-[(6-bromo-1,3-benzodioxol-5-yl)thio]-3H-purin-3-yl}ethylidene)piperidine-1-carboxylate], the “% Inhibition at 5 μM Compound Concentration” value (“% Inhibition” below) is on record as 38%.

Take `CC(C)(C)OC(=O)N1CCC[C@H](CCn2cnc(N)c3nc(Sc4cc5c(cc4Br)OCO5)nc2-3)C1` [Example 393, tert-Butyl (3R)-3-(2-{6-amino-8-[(6-bromo-1,3-benzodioxol-5-yl)thio]-3H-purin-3-yl}ethyl)piperidine-1-carboxylate]: the “% Inhibition” value was 0%. `CC(C)(C)OC(=O)N1CCCC[C@@H]1CCn1cnc(N)c2nc(Sc3cc4c(cc3Br)OCO4)nc1-2` [Example 395, tert-Butyl (2R)-2-(2-{6-amino-8-[(6-bromo-1,3-benzodioxol-5-yl)thio]-3H-purin-3-yl}ethyl)piperidine-1-carboxylate]: the “% Inhibition” value is given as 0%.

Consider `Nc1ncn(CCC2CCCCN2S(=O)(=O)C(F)(F)F)c2nc(Sc3cc4c(cc3Br)OCO4)nc1-2` (stereo not shown) [Example 397, 8-[(6-Bromo-1,3-benzodioxol-5-yl)thio]-3-(2-{1-[(trifluoromethyl)sulfonyl]piperidin 2-yl}ethyl)-3H-purin-6-amine], for which the “% Inhibition” value stood at 1%. Same read-out and setting: the result for `CC(=O)N1CCCC(CCn2cnc(N)c3nc(Sc4cc5c(cc4Br)OCO5)nc2-3)C1` (stereo not shown) [Example 401, 3-[2-(1-Acetylpiperidin-3-yl)ethyl]-8-[(6-bromo-1,3-benzodioxol-5-yl)thio]-3H-purin-6-amine] reads 2%; that for `Nc1ncn(CCC2CCCN(S(=O)(=O)C(F)(F)F)C2)c2nc(Sc3cc4c(cc3Br)OCO4)nc1-2` (stereo not shown) [Example 403, 8-[(6-Bromo-1,3-benzodioxol-5-yl)thio]-3-(2-{1-[(trifluoromethyl)sulfonyl]piperidin-3-yl}ethyl)-3H-purin-6-amine], 14%; that for `Nc1ncn(CCC2CCN(C(=O)OCc3ccccc3)CC2)c2nc(Sc3cc4c(cc3Br)OCO4)nc1-2` [Example 410, Benzyl 4-(2-{6-amino-8-[(6-bromo-1,3-benzodioxol-5-yl)thio]-3H-purin-3-yl}ethyl)piperidine-1-carboxylate], 11%. Turning to `CC(C)(C)OC(=O)N1CCCC1CCn1cnc(N)c2nc(Sc3cc4c(cc3Br)OCO4)nc1-2` (stereo not shown) [Example 412, tert-Butyl 2-(2-{6-amino-8-[(6-bromo-1,3-benzodioxol-5-yl)thio]-3H-purin-3-yl}ethyl)pyrrolidine-1-carboxylate], the “% Inhibition” value came to 0%. As for `CC(C)(C)OC(=O)N1CCC(CCn2cnc(N)c3nc(Sc4cc5c(cc4Br)OCO5)nc2-3)C1` (stereo not shown) [Example 413, tert-Butyl 3-(2-{6-amino-8-[(6-bromo-1,3-benzodioxol-5-yl)thio]-3H-purin-3-yl}ethyl)pyrrolidine-1-carboxylate], the “% Inhibition” value came to 28%.

As for `CC(C)(C)OC(=O)N1CCCC[C@H]1CCn1cnc(N)c2nc(Sc3cc4c(cc3Br)OCO4)nc1-2` [Example 417, tert-Butyl (2S)-2-(2-{6-amino-8-[(6-bromo-1,3-benzodioxol-5-yl)thio]-3H-purin-3-yl}ethyl)piperidine-1-carboxylate], the “% Inhibition” value was found to be 0%.

The same assay, now with this note: BODIPY-GM 10 nM, Hsp90 30 nM.
In the case of `CC(=O)N1CCN(CCn2cnc(N)c3nc(Sc4cc5c(cc4Br)OCO5)nc2-3)CC1` [Example 383, 3-[2-(4-Acetylpiperazin-1-yl)ethyl]-8-[(6-bromo-1,3-benzodioxol-5-yl)thio]-3H-purin-6-amine], the IC50 – broadly, the concentration that inhibits the measured activity by half – is 21 µM. As for `COc1ccc(OC)c(Sc2nc3c(N)ncnc3n2CCC2(F)C(F)(F)C(F)(F)C(F)(F)C(F)(F)C2(F)F)c1` [Example 384, 8-[(2,5-Dimethoxyphenyl)thio]-9-[2-(undecafluorocyclohexyl)ethyl]-9H-purin-6-amine], the IC50 is > 1 µM.

In turn, `CCCN1CCCCC1CCn1c(Sc2cc3c(cc2Br)OCO3)nc2c(N)ncnc21` (stereo not shown) [Example 386, 8-[(6-Bromo-1,3-benzodioxol-5-yl)thio]-9-[2-(1-propylpiperidin-2-yl)ethyl]-9H-purin-6-amine] had an IC50 of 0.11 µM.

Consider `Nc1ncnc2c1nc(Sc1cc3c(cc1Br)OCO3)n2CCC1CCN(S(=O)(=O)C(F)(F)F)CC1` [Example 387, 8-[(6-Bromo-1,3-benzodioxol-5-yl)thio]-9-(2-{1-[(trifluoromethyl)sulfonyl]piperidin 4-yl}ethyl)-9H-purin-6-amine], for which the IC50 is > 8 µM. Regarding `CC(C)(C)OC(=O)N1CCC(=CCn2c(Sc3cc4c(cc3Br)OCO4)nc3c(N)ncnc32)CC1` [Example 390, tert-Butyl 4-(2-{6-amino-8-[(6-bromo-1,3-benzodioxol-5-yl)thio]-9H-purin-9-yl}ethylidene)piperidine-1-carboxylate], the IC50 came out at 0.31 µM.

In the case of `CC(C)(C)OC(=O)N1CCC[C@@H](CCn2c(Sc3cc4c(cc3Br)OCO4)nc3c(N)ncnc32)C1` [Example 391, tert-Butyl (3S)-3-(2-{6-amino-8-[(6-bromo-1,3-benzodioxol-5-yl)thio]-9H-purin-9-yl}ethyl)piperidine-1-carboxylate], the IC50 was 1.2 µM. Compound `CC(C)(C)OC(=O)N1CCC[C@H](CCn2c(Sc3cc4c(cc3Br)OCO4)nc3c(N)ncnc32)C1` [Example 392, tert-Butyl (3R)-3-(2-{6-amino-8-[(6-bromo-1,3-benzodioxol-5-yl)thio]-9H-purin-9-yl}ethyl)piperidine-1-carboxylate] yielded an IC50 of 2.9 µM. Regarding `CC(C)(C)OC(=O)N1CCCC[C@@H]1CCn1c(Sc2cc3c(cc2Br)OCO3)nc2c(N)ncnc21` [Example 394, tert-Butyl (2R)-2-(2-{6-amino-8-[(6-bromo-1,3-benzodioxol-5-yl)thio]-9H-purin-9-yl}ethyl)piperidine-1-carboxylate], the IC50 is 0.7 µM. The same measure, in the same setting: the result for `Nc1ncnc2c1nc(Sc1cc3c(cc1Br)OCO3)n2CCC1CCCCN1S(=O)(=O)C(F)(F)F` (stereo not shown) [Example 396, 8-[(6-Bromo-1,3-benzodioxol-5-yl)thio]-9-(2-{1-[(trifluoromethyl)sulfonyl]piperidin 2-yl}ethyl)-9H-purin-6-amine] reads 0.81 µM. The same measure, in the same setting: next, `CC(C)(C)OC(=O)N[C@H]1CC[C@@H](CCn2c(Sc3cc4c(cc3Br)OCO4)nc3c(N)ncnc32)CC1` [Example 398, tert-Butyl [cis-4-(2-{6-amino-8-[(6-bromo-1,3-benzodioxol-5-yl)thio]-9H-purin-9-yl}ethyl)cyclohexyl]carbamate]: 0.14 µM; `CC(C)(C)OC(=O)N[C@H]1CC[C@@H](CCn2cnc(N)c3nc(Sc4cc5c(cc4Br)OCO5)nc2-3)CC1` [Example 399, tert-Butyl [cis-4-(2-{6-amino-8-[(6-bromo-1,3-benzodioxol-5-yl)thio]-3H-purin-3-yl}ethyl)cyclohexyl]carbamate]: 0.95 µM.

On to `CC(=O)N1CCCC(CCn2c(Sc3cc4c(cc3Br)OCO4)nc3c(N)ncnc32)C1` (stereo not shown) [Example 400, 9-[2-(1-Acetylpiperidin-3-yl)ethyl]-8-[(6-bromo-1,3-benzodioxol-5-yl)thio]-9H-purin-6-amine], for which the IC50 is 6 µM.

Turning to `Nc1ncnc2c1nc(Sc1cc3c(cc1Br)OCO3)n2CCC1CCCN(S(=O)(=O)C(F)(F)F)C1` (stereo not shown) [Example 402, 8-[(6-Bromo-1,3-benzodioxol-5-yl)thio]-9-(2-{1-[(trifluoromethyl)sulfonyl]piperidin 3-yl}ethyl)-9H-purin-6-amine], the IC50 turned out to be 0.59 µM.

With `COc1ccc(OC)c(Sc2nc3c(N)ncnc3n2CCC2=CC3CC(C2)C3(C)C)c1` (stereo not shown) [Example 405, 8-[(2,5-Dimethoxyphenyl)thio]-9-[2-(6,6-dimethylbicyclo[3.1.1]hept-2-en-3-yl)ethyl]-9H-purin-6-amine], the IC50 is > 8 µM.

As for `CC1=NNC(=O)C1CCn1c(Sc2cc3c(cc2Br)OCO3)nc2c(N)ncnc21` (stereo not shown) [Example 406, 4-(2-{6-Amino-8-[(6-bromo-1,3-benzodioxol-5-yl)thio]-9H-purin-9-yl}ethyl)-5-methyl-2,4-dihydro-3H-pyrazol-3-one], the IC50 was > 25 µM.

Consider `COc1ccc(OC)c(Sc2nc3c(N)ncnc3n2CCC2C(=O)NN=C2C)c1` (stereo not shown) [Example 407, 4-(2-{6-Amino-8-[(2,5-dimethoxyphenyl)thio]-9H-purin-9-yl}ethyl)-5-methyl-2,4-dihydro-3H-pyrazol-3-one], for which the IC50 was > 25 µM. Compound `Nc1ncnc2c1nc(Sc1cc3c(cc1Br)OCO3)n2CCC1CCN(C(=O)OCc2ccccc2)CC1` [Example 409, Benzyl 4-(2-{6-amino-8-[(6-bromo-1,3-benzodioxol-5-yl)thio]-9H-purin-9-yl}ethyl)piperidine-1-carboxylate] registered an IC50 of 0.13 µM. For the compound `CC(C)(C)OC(=O)N1CCCC1CCn1c(Sc2cc3c(cc2Br)OCO3)nc2c(N)ncnc21` (stereo not shown) [Example 414, tert-Butyl 2-(2-{6-amino-8-[(6-bromo-1,3-benzodioxol-5-yl)thio]-9H-purin-9-yl}ethyl)pyrrolidine-1-carboxylate], the IC50 is 0.54 µM. Turning to `CC(C)(C)OC(=O)N1CCC(CCn2c(Sc3cc4c(cc3Br)OCO4)nc3c(N)ncnc32)C1` (stereo not shown) [Example 415, tert-Butyl 3-(2-{6-amino-8-[(6-bromo-1,3-benzodioxol-5-yl)thio]-9H-purin-9-yl}ethyl)pyrrolidine-1-carboxylate], the half-inhibitory concentration (IC50) was found to be 0.46 µM. `CC(C)(C)OC(=O)N1CCCC[C@H]1CCn1c(Sc2cc3c(cc2Br)OCO3)nc2c(N)ncnc21` [Example 416, tert-Butyl (2S)-2-(2-{6-amino-8-[(6-bromo-1,3-benzodioxol-5-yl)thio]-9H-purin-9-yl}ethyl)piperidine-1-carboxylate] registered an IC50 of 0.2 µM.
